# Where a name gives a salt, the structure may show the parent alone.
# Biological target: GST tagged IRAK4 (Homo sapiens (Human), UniProt Q9NWZ3)
# Experiment: IRAK4 Kinase Assay (IMAP fluorescence polarization)
# Assay type: biochemical
# Settings: 0.5 nM GST tagged IRAK4, 100 μM ATP, 30 minutes at 25° C.
# Protocol: The kinase activity of IRAK4 is determined by its ability to catalyze the phosphorylation of a fluorescent polypeptide substrate. The extent of phosphorylation is measured using the IMAP technology (Molecular Devices) where the phosphorylated fluorescent substrate binds to the large M(III)-based nanoparticles which reduces the rotational speed of the substrate and thus increases its fluorescent polarization (FP).
# 20 μL reaction mixture contains 10 mM TriHCl, pH 7.2, 0.5 nM GST tagged IRAK4 (SignalChem), 100 nM fluorescent peptide substrate (RP7030, Molecular Devices), 100 μM ATP, 1 mM DDT, 1 mM MgCl2, and 0.01% Tween 20. The reaction is initiated by the addition of ATP. After incubation for 30 minutes at 25° C., 60 μL of Progressive IMAP Reagent (Molecular Devices) is added to stop the reaction. Change in RP7030's FP is determined by a FP reader (Analyst HT, LJL BioSystems).
# Chain of GST tagged IRAK4 (Q9NWZ3 whole entry): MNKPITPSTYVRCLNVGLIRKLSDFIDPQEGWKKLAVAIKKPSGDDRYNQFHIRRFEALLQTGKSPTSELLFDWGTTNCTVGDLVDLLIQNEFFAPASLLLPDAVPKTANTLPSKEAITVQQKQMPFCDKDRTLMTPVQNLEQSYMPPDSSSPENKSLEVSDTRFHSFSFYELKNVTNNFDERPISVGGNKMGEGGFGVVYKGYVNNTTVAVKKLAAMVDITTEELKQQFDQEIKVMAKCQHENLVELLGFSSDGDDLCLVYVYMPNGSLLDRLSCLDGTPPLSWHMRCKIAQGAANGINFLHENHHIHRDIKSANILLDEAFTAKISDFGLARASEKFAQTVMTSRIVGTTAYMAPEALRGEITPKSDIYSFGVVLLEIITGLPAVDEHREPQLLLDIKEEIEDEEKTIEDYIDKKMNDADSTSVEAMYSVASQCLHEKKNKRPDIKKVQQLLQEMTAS
row,Compound,IC50 [nM]
1,"N[C@H]1CCCC[C@H]1Nc1ncc2ccc(C(=O)Nc3ccccc3Br)n2n1 [Example 32, 2-{[(1R,2S)-2-aminocyclohexyl]amino}-N-(2-bromophenyl)pyrrolo[2,1-f][1,2,4]triazine-7-carboxamide trifluoroacetate]",11
2,"Cn1cc(NC(=O)c2ccc3cnc(N4C[C@H]5CNC[C@@H]4C5)nn23)c(C#N)n1 (single isomer, unassigned) [Example 134, N-(3-cyano-1-methyl-1H-pyrazol-4-yl)-2-[(1R,5S)- or (1S,5R)-3,6-diazabicyclo[3.2.1]oct-6-yl]pyrrolo[2,1-f][1,2,4]triazine-7-carboxamide]",174
3,"Cn1cc(NC(=O)c2ccc3cnc(N[C@@H]4CCCC[C@@H]4N)nn23)c(Br)n1 [Example 66, 2-{[(1R,2S)-2-aminocyclohexyl]amino}-N-(3-bromo-1-methyl-1H-pyrazol-4-yl)pyrrolo[2,1-f][1,2,4]triazine-7-carboxamide trifluoroacetate]",1
4,"N[C@H]1CCCC[C@H]1Nc1ncc2ccc(C(=O)Nc3ccsc3C(F)(F)F)n2n1 [Example 88, 2-{[(1R,2S)-2-aminocyclohexyl]amino}-N-[2-(trifluoromethyl)thiophen-3-yl]pyrrolo[2,1-f][1,2,4]triazine-7-carboxamide trifluoroacetate]",58
5,"O=C(Nc1cscc1Cl)c1ccc2cnc(N3CCCNCC3)nn12 [Example 105, N-(4-chlorothiophen-3-yl)-2-(1,4-diazepan-1-yl)pyrrolo[2,1-f][1,2,4]triazine-7-carboxamide trifluoroacetate]",4820
6,"O=C(Nc1cscc1C(F)F)c1ccc2cnc(N3C[C@H]4CC[C@@H]3CN4)nn12 (single isomer, unassigned) [Example 81, 2-[(1S,4S)- or (1R,4R)-2,5-diazabicyclo[2.2.2]oct-2-yl]-N-[4-(difluoromethyl)thiophen-3-yl]pyrrolo[2,1-f][1,2,4]triazine-7-carboxamide trifluoroacetate]",63
7,"Cn1cc(NC(=O)c2ccc3cnc(N4C[C@H]5CNC[C@@H]4C5)nn23)c(C(F)(F)F)n1 (single isomer, unassigned) [Example 117, 2-[(1S,5R)- or (1R,5S)-3,6-diazabicyclo[3.2.1]oct-6-yl]-N-[1-methyl-3-(trifluoromethyl)-1H-pyrazol-4-yl]pyrrolo[2,1-f][1,2,4]triazine-7-carboxamide]",145
8,"O=C(Nc1ccccc1Br)c1ccc2cnc(N3CCCNCC3)nn12 [Example 33, N-(2-bromophenyl)-2-(1,4-diazepan-1-yl)pyrrolo[2,1-f][1,2,4]triazine-7-carboxamide trifluoroacetate]",5350
9,"N#Cc1cscc1NC(=O)c1ccc2cnc(N3CCC[C@@H](N)C3)nn12 [Example 144, 2-[(3R)-3-aminopiperidin-1-yl]-N-(4-cyanothiophen-3-yl)pyrrolo[2,1-f][1,2,4]triazine-7-carboxamide trifluoroacetate]",18
10,"Cn1cc(NC(=O)c2ccc3cnc(N[C@@H]4CCCC[C@@H]4N)nn23)c(C(F)F)n1 [Example 1, 2-{[(1R,2S)-2-Aminocyclohexyl]amino}-N-[3-(difluoromethyl)-1-methyl-1H-pyrazol-4-yl]pyrrolo[2,1-f][1,2,4]triazine-7-carboxamide]",0.5
11,"Cn1cc(NC(=O)c2ccc3cnc(N4C[C@@H]5CC[C@H]4CN5)nn23)c(C(F)(F)F)n1 (single isomer, unassigned) [Example 170, 2-[(1S,4S)- or (1R,4R)-2,5-diazabicyclo[2.2.2]oct-2-yl]-N-[1-methyl-3-(trifluoromethyl)-1H-pyrazol-4-yl]pyrrolo[2,1-f][1,2,4]triazine-7-carboxamide]",35

# More lines, in order of falling IC50, values ahead:
row,IC50 [nM],Compound
1,4700,"N[C@@H]1[C@H](Nc2ncc3ccc(C(=O)Nc4ccsc4C(F)(F)F)n3n2)CCCC1(F)F [Example 95, 2-{[(1R,2R)-2-amino-3,3-difluorocyclohexyl]amino}-N-[2-(trifluoromethyl)thiophen-3-yl]pyrrolo[2,1-f][1,2,4]triazine-7-carboxamide trifluoroacetate]"
2,668,"Cn1cc(NC(=O)c2ccc3cnc(N[C@H]4CC(F)(F)CC[C@H]4N)nn23)c(C(F)F)n1 (single isomer, unassigned) [Example 130, 2-{[(1S,2R)- or (1R,2S)-2-amino-5,5-difluorocyclohexyl]amino}-N-[3-(difluoromethyl)-1-methyl-1H-pyrazol-4-yl]pyrrolo[2,1-f][1,2,4]triazine-7-carboxamide]"
3,352,"Cn1cc(NC(=O)c2ccc3cnc(N4CCCNCC4)nn23)c(C#N)n1 [Example 34, N-(3-cyano-1-methyl-1H-pyrazol-4-yl)-2-(1,4-diazepan-1-yl)pyrrolo[2,1-f][1,2,4]triazine-7-carboxamide trifluoroacetate]"
4,172,"O=C(Nc1cscc1C(F)F)c1ccc2cnc(N3C[C@@H]4CC[C@H]3CN4)nn12 (single isomer, unassigned) [Example 80, 2-[(1S,4S)- or (1R,4R)-2,5-diazabicyclo[2.2.2]oct-2-yl]-N-[4-(difluoromethyl)thiophen-3-yl]pyrrolo[2,1-f][1,2,4]triazine-7-carboxamide trifluoroacetate]"
5,73,"Cn1cc(NC(=O)c2ccc3cnc(N4CCNCC4)nn23)c(C(F)(F)F)n1 [Example 4, N-[1-methyl-3-(trifluoromethyl)-1H-pyrazol-4-yl]-2-piperazin-1-ylpyrrolo[2,1-f][1,2,4]triazine-7-carboxamide trifluoroacetate]"
6,35,"Cn1cc(NC(=O)c2ccc3cnc(N[C@@H]4CCCC[C@@H]4N)nn23)cn1 [Example 169, 2-{[(1R,2S)-2-aminocyclohexyl]amino}-N-(1-methyl-1H-pyrazol-4-yl)pyrrolo[2,1-f][1,2,4]triazine-7-carboxamide trifluoroacetate]"
7,26,"Cn1ncc(NC(=O)c2ccc3cnc(N[C@@H]4CCCC[C@@H]4N)nn23)c1C(F)(F)F [Example 70, 2-{[(1R,2S)-2-aminocyclohexyl]amino}-N-[1-methyl-5-(trifluoromethyl)-1H-pyrazol-4-yl]pyrrolo[2,1-f][1,2,4]triazine-7-carboxamide trifluoroacetate]"
8,9,"Cn1cc(NC(=O)c2ccc3cnc(N[C@H]4CNC[C@@H](F)C4)nn23)c(C(F)(F)F)n1 [Example 160, 2-{[(3R,5S)-5-fluoropiperidin-3-yl]amino}-N-[1-methyl-3-(trifluoromethyl)-1H-pyrazol-4-yl]pyrrolo[2,1-f][1,2,4]triazine-7-carboxamide]"
9,3,"Cn1cc(NC(=O)c2ccc3cnc(N[C@@H]4CCC(F)(F)C[C@@H]4N)nn23)c(C(F)F)n1 (single isomer, unassigned) [Example 139, 2-{[(1S,2R)- or (1R,2S)-2-amino-4,4-difluorocyclohexyl]amino}-N-[3-(difluoromethyl)-1-methyl-1H-pyrazol-4-yl]pyrrolo[2,1-f][1,2,4]triazine-7-carboxamide]"
10,2,"Cn1cc(NC(=O)c2ccc3cnc(N[C@@H]4CCCNC4)nn23)c(C(F)(F)F)n1 [Example 5, N-[1-methyl-3-(trifluoromethyl)-1H-pyrazol-4-yl]-2-[(3R)-piperidin-3-ylamino]pyrrolo[2,1-f][1,2,4]triazine-7-carboxamide trifluoroacetate]"

# — patent US10329295B2, “Pyrrolotriazine inhibitors of IRAK4 activity” (MERCK SHARP & DOHME CORP., priority 2015, dated 2019)
